How the values were obtained:
Human Platelets = assay: Antiaggregatory action in human platelets (ADP-induced aggregation in platelet-rich plasma); type: cell-based; settings: human PRP; for inhibition at 10 µg/mL / inhibition at 30 µg/mL / inhibition at 100 µg/mL: Platelet, read-out: Test 1 (% inhibition) of platelet aggregation
Procedure: Antiaggregatory Action in Human Platelets
Platelet aggregation was measured using an automatic platelet aggregometer (PAM-8C, Mebanix) using the method of G.V.R. Born [Nature, 194, 927-929 ([…])] with a slight modification. Blood was collected from the antecubital vein of healthy volunteers who had not taken any medications for two weeks using 3.8% sodium citrate as an anticoagulant ( 1/9 volumes of blood). Platelet-rich plasma (PRP) was obtained by centrifugation (CR5DL, Hitachi) at 200× g for 15 min at room temperature. Platelet-poor plasma (PPP) was obtained by centrifugation of the remaining blood at 2,000× g for 10 min at room temperature. Platelet counts in PRP were measured by an automatic hematology analyzer (K-1000, Toa Iyo Denshi), and adjusted to 3×10^8 /ml by adding PPP. PRP prepared as described above was used for the platelet aggregation experiment. PRP (0.24 ml) containing a test compound was added to a cuvette and set placed in the platelet aggregometer. After pre-incubation for 1.5 min at 37° C., 0.01 ml of 0.25 mM ADP were added to the cuvette to induce platelet aggregation. Platelet aggregation was monitored for 10 min.
Antiaggregatory action of the test compound was determined as a percent inhibition (%) against platelet aggregation of a control (free of the test compound).

For `O=C(C1CC1)C(c1ccccc1F)N1CCC(SSc2ccc([N+](=O)[O-])cc2[N+](=O)[O-])CC1` (centres unmarked), which melting point is on record?
The melting point was 120 to 127 °C.

Which results are given for `COC(=O)C(c1ccccc1Cl)N1CCC(SS(=O)(=O)c2ccc(C)cc2)CC1` (stereo not drawn) [Example 2 (d), 1-(2-Chloro-α-methoxycarbonylbenzyl)-4-(4-methylphenylsulfonylthio)-piperidine]?
inhibition at 10 µg/mL (Human Platelets; 10 μg/ml test compound): 32.8%; inhibition at 30 µg/mL (Human Platelets; 30 μg/ml test compound): 97.1%; inhibition at 100 µg/mL (Human Platelets; 100 μg/ml test compound): 98%

Which melting point does the source give for `COC(=O)C(c1ccccc1Cl)N1CCC(SS(=O)(=O)c2ccc(C)cc2)CC1` (stereo not drawn) [Example 2, 1-(2-Chloro-α-methoxycarbonylbenzyl)-4-(4-methylphenylsulfonylthio)-piperidine] here?
Its melting point is 100 to 115 °C.

Which inhibition at 10 µg/mL (Human Platelets; 10 μg/ml test compound) does the source give for `COC(=O)C(c1ccccc1F)N1CCC(SS(=O)(=O)c2ccc(C)cc2)CC1` (stereo not drawn) [Example 3 (d), 1-(2-Fluoro-α-methoxycarbonylbenzyl)-4-(4-methylphenylsulfonylthio)-piperidine] here?
Its inhibition at 10 µg/mL is 24.4%.

What about the inhibition at 30 µg/mL (Human Platelets; 30 μg/ml test compound) of the same compound?
Its inhibition at 30 µg/mL is 89.3%.

And the inhibition at 100 µg/mL (Human Platelets; 100 μg/ml test compound)?
Its inhibition at 100 µg/mL is 99.8%.

Which melting point does the source give for `COC(=O)C(c1ccccc1F)N1CCC(SS(=O)(=O)c2ccc(C)cc2)CC1` (stereo not drawn) [Example 3, 1-(2-Fluoro-α-methoxycarbonylbenzyl)-4-(4-methylphenylsulfonylthio)-piperidine] here?
The melting point was 106 to 109 °C.

With `Cc1ccc(S(=O)(=O)SC2CCN(C(C(=O)C3CC3)c3ccccc3F)C2)cc1` (stereo not drawn) [Example 4 (d), 1-(α-Cyclopropylcarbonyl-2-fluorobenzyl)-3-(4-methylphenylsulfonylthio)-pyrrolidine] as the compound, how does the inhibition at 10 µg/mL (Human Platelets; 10 μg/ml test compound) read?
The inhibition at 10 µg/mL was 30.6%.

What about the inhibition at 30 µg/mL (Human Platelets; 30 μg/ml test compound) of the same compound?
The inhibition at 30 µg/mL was 77.6%.

And the inhibition at 100 µg/mL (Human Platelets; 100 μg/ml test compound)?
The inhibition at 100 µg/mL was 99.5%.

With `Cc1ccc(S(=O)(=O)SC2CCN(C(C(=O)C3CC3)c3ccccc3F)C2)cc1` (stereo not drawn) [Example 4, 1-(α-Cyclopropylcarbonyl-2-fluorobenzyl)-3-(4-methylphenylsulfonylthio)-pyrrolidine] as the compound, how does the melting point read?
The melting point was 98 to 106 °C.

With `Cc1ccc(S(=O)(=O)SC2CN(C(C(=O)C3CC3)c3ccccc3F)C2)cc1` (stereo not drawn) [Example 5 (d), 1-(α-Cyclopropylcarbonyl-2-fluorobenzyl)-3-(4-methylphenylsulfonylthiol)-azetidine] as the compound, how does the “Test 1 (% inhibition) of platelet aggregation” value (shortened to “Test 1 (% inhibition)”) (Human Platelets; 10 μg/ml test compound) read?
The value was 37.1%.

And the “Test 1 (% inhibition)” value (Human Platelets; 30 μg/ml test compound)?
Its value is 98.4%.

What about the “Test 1 (% inhibition)” value (Human Platelets; 100 μg/ml test compound) of the same compound?
The value was 99.6%.

Which melting point does the source give for `CCOC(=O)/C=C1\CN(C(C(=O)C2CC2)c2ccccc2F)CCC1SS(=O)(=O)c1ccc(C)cc1` (stereo not drawn) [Example 6, (E)-1-(α-Cyclopropylcarbonyl-2-fluorobenzyl)-3-ethoxycarbonylmethylidene-4-(4-methylphenylsulfonylthio)piperidine] here?
Its melting point is 94 to 103 °C.

With `O=C(C1CC1)C(c1ccccc1F)N1CCC(SS(=O)(=O)c2ccccc2)CC1` (stereo not drawn) [Example 9 (b), 1-(α-Cyclopropylcarbonyl-2-fluorobenzyl)-4-phenylsulfonylthiopiperidine] as the compound, how does the inhibition at 10 µg/mL (Human Platelets; 10 μg/ml test compound) read?
Its inhibition at 10 µg/mL is 23.4%.

And the inhibition at 30 µg/mL (Human Platelets; 30 μg/ml test compound)?
The inhibition at 30 µg/mL was 97.3%.

What about the inhibition at 100 µg/mL (Human Platelets; 100 μg/ml test compound) of the same compound?
Its inhibition at 100 µg/mL is 94%.

With `O=C(C1CC1)C(c1ccccc1F)N1CCC(SS(=O)(=O)c2ccccc2)CC1` (stereo not drawn) [Example 9, 1-(α-Cyclopropylcarbonyl-2-fluorobenzyl)-4-phenylsulfonylthiopiperidine] as the compound, how does the melting point read?
The melting point was 105 to 116 °C.

For `O=C(C1CC1)C(c1ccccc1F)N1CCC(SS(=O)(=O)c2ccc(Cl)cc2)CC1` (stereo not drawn) [Example 10 (b), 4-(4-Chlorophenylsulfonylthio)-1-(α-cyclopropylcarbonyl-2-fluorobenzyl)-piperidine], which inhibition at 10 µg/mL (Human Platelets; 10 μg/ml test compound) is on record?
The inhibition at 10 µg/mL was 35.2%.

What about the inhibition at 30 µg/mL (Human Platelets; 30 μg/ml test compound) of the same compound?
Its inhibition at 30 µg/mL is 96.2%.

And the inhibition at 100 µg/mL (Human Platelets; 100 μg/ml test compound)?
Its inhibition at 100 µg/mL is 98.8%.

With `O=C(C1CC1)C(c1ccccc1F)N1CCC(SS(=O)(=O)c2ccc(Cl)cc2)CC1` (stereo not drawn) [Example 10, 4-(4-Chlorophenylsulfonylthio)-1-(α-cyclopropylcarbonyl-2-fluorobenzyl)-piperidine] as the compound, how does the melting point read?
The melting point was 108 to 116 °C.

For `O=C(C1CC1)C(c1ccccc1F)N1CCC(SS(=O)(=O)c2ccc(F)cc2)CC1` (stereo not drawn) [Example 11 (b), 1-(α-Cyclopropylcarbonyl-2-fluorobenzyl)-4-(4-fluorophenylsulfonylthio)-piperidine], which inhibition at 10 µg/mL (Human Platelets; 10 μg/ml test compound) is on record?
Its inhibition at 10 µg/mL is 15.5%.

And the inhibition at 30 µg/mL (Human Platelets; 30 μg/ml test compound)?
The inhibition at 30 µg/mL was 98%.

What about the inhibition at 100 µg/mL (Human Platelets; 100 μg/ml test compound) of the same compound?
The inhibition at 100 µg/mL was 92.5%.

For `O=C(C1CC1)C(c1ccccc1F)N1CCC(SS(=O)(=O)c2ccc(F)cc2)CC1` (stereo not drawn) [Example 11, 1-(α-Cyclopropylcarbonyl-2-fluorobenzyl)-4-(4-fluorophenylsulfonylthio)-piperidine], which melting point is on record?
Its melting point is 110 to 121 °C.

Which results are given for `COc1ccc(S(=O)(=O)SC2CCN(C(C(=O)C3CC3)c3ccccc3F)CC2)cc1` (stereo not drawn) [Example 12 (b), 1-(α-Cyclopropylcarbonyl-2-fluorobenzyl)-4-(4-methoxyphenylsulfonylthio)piperidine]?
inhibition at 10 µg/mL (Human Platelets; 10 μg/ml test compound): 19.2%; inhibition at 30 µg/mL (Human Platelets; 30 μg/ml test compound): 93.9%; inhibition at 100 µg/mL (Human Platelets; 100 μg/ml test compound): 100%

For `COc1ccc(S(=O)(=O)SC2CCN(C(C(=O)C3CC3)c3ccccc3F)CC2)cc1` (stereo not drawn) [Example 12, 1-(α-Cyclopropylcarbonyl-2-fluorobenzyl)-4-(4-methoxyphenylsulfonylthio)piperidine], which melting point is on record?
Its melting point is 113 to 122 °C.

Which results are given for `Cc1ccc([S+]([O-])SC2CCN(C(C(=O)C3CC3)c3ccccc3F)CC2)cc1` (stereo not drawn) [Example 13 (b), 1-(α-Cyclopropylcarbonyl-2-fluorobenzyl)-4-(4-methylphenylsulfinylthio)-piperidine]?
inhibition at 10 µg/mL (Human Platelets; 10 μg/ml test compound): 13.3%; inhibition at 30 µg/mL (Human Platelets; 30 μg/ml test compound): 40%; inhibition at 100 µg/mL (Human Platelets; 100 μg/ml test compound): 91.8%

Which melting point does the source give for `Cc1ccc([S+]([O-])SC2CCN(C(C(=O)C3CC3)c3ccccc3F)CC2)cc1` (stereo not drawn) [Example 13, 1-(α-Cyclopropylcarbonyl-2-fluorobenzyl)-4-(4-methylphenylsulfinylthio)-piperidine] here?
The melting point was 110 to 118 °C.

Which inhibition at 10 µg/mL (Human Platelets; 10 μg/ml test compound) does the source give for `Cc1ccc([S+]([O-])SC2CCN(C(C(=O)C3CC3)c3ccccc3F)C2)cc1` (stereo not drawn) [Example 14 (b), 1-(α-Cyclopropylcarbonyl-2-fluorobenzyl)-3-(4-methylphenylsulfinylthio)-pyrrolidine] here?
Its inhibition at 10 µg/mL is 28.6%.

And the inhibition at 30 µg/mL (Human Platelets; 30 μg/ml test compound)?
Its inhibition at 30 µg/mL is 64%.

And the inhibition at 100 µg/mL (Human Platelets; 100 μg/ml test compound)?
Its inhibition at 100 µg/mL is 95.8%.

For `Cc1ccc([S+]([O-])SC2CCN(C(C(=O)C3CC3)c3ccccc3F)C2)cc1` (stereo not drawn) [Example 14, 1-(α-Cyclopropylcarbonyl-2-fluorobenzyl)-3-(4-methylphenylsulfinylthio)-pyrrolidine], which melting point is on record?
The melting point was 87 to 100 °C.

Which inhibition at 10 µg/mL (Human Platelets; 10 μg/ml test compound) does the source give for `C[S+]([O-])SC1CCN(C(C(=O)C2CC2)c2ccccc2F)CC1` (stereo not drawn) [Example 15 (b), 1-(α-Cyclopropylcarbonyl-2-fluorobenzyl)-4-methylsulfinylthiopiperidine] here?
The inhibition at 10 µg/mL was 12.3%.

What about the inhibition at 30 µg/mL (Human Platelets; 30 μg/ml test compound) of the same compound?
The inhibition at 30 µg/mL was 28.1%.

What about the inhibition at 100 µg/mL (Human Platelets; 100 μg/ml test compound) of the same compound?
Its inhibition at 100 µg/mL is 71.1%.

With `C[S+]([O-])SC1CCN(C(C(=O)C2CC2)c2ccccc2F)CC1` (stereo not drawn) [Example 15, 1-(α-Cyclopropylcarbonyl-2-fluorobenzyl)-4-methylsulfinylthiopiperidine] as the compound, how does the melting point read?
The melting point was 105 to 111 °C.

Which melting point does the source give for `Cc1ccc(SSC2CCN(C(C(=O)C3CC3)c3ccccc3F)CC2)cc1` (stereo not drawn) [Example 16, 1-(α-Cyclopropylcarbonyl-2-fluorobenzyl)-4-(4-methylphenyldisulfanyl)-piperidine] here?
The melting point was 96 to 103 °C.

Which melting point does the source give for `O=C(C1CC1)C(c1ccccc1F)N1CCC(SSc2ccccc2[N+](=O)[O-])CC1` (stereo not drawn) [Example 18, 1-(α-Cyclopropylcarbonyl-2-fluorobenzyl)-4-(2-nitrophenyldisulfanyl)-piperidine] here?
Its melting point is 110 to 116 °C.

Reference: patent publication US6610708B1, “Cyclic amino compounds” (Sankyo Company, Limited, priority 1998, dated 2003)
